Experiments:
Assay type in all cases: in vivo
[1] = test system: Tobacco budworm (Heliothis virescens); experiment: Tobacco budworm (Heliothis virescens) microtiter diet test, egg and larval mortality; conditions: 120 h, sprayed onto insect diet, assessed after 5 days, read-out: egg and larval mortality in comparison with untreated controls
Description: B.5. Tobacco Budworm (Heliothis virescens)
For evaluating control of tobacco budworm (Heliothis virescens) the test unit consisted of 96-well-microtiter plates containing an insect diet and 15-25 H. virescens eggs.
The compounds were formulated using a solution containing 75% v/v water and 25% v/v DMSO. Different concentrations of formulated compounds were sprayed onto the insect diet at 10 μl, using a custom built micro atomizer, at two replications.
After application, microtiter plates were incubated at about 28±1° C. and about 80±5% relative humidity for 5 days. Egg and larval mortality was then visually assessed.

[2] = test system: Yellow fever mosquito (Aedes aegypti); experiment: whole plant or invertebrate; conditions: 48 h, freshly hatched larvae in tap water, assessed after 2 days, read-out: larval mortality in comparison with untreated controls
Description: B.6. Yellow Fever Mosquito (Aedes aegypti)
For evaluating control of yellow fever mosquito (Aedes aegypti) the test unit consisted of 96-well-microtiter plates containing 200 μl of tap water per well and 5-15 freshly hatched A. aegypti larvae. The active compounds were formulated using a solution containing 75% (v/v) water and 25% (v/v) DMSO. Different concentrations of formulated compounds or mixtures were sprayed onto the insect diet at 2.5 μl, using a custom built micro atomizer, at two replications.
After application, microtiter plates were incubated at 28+1° C., 80+5% RH for 2 days. Larval mortality was then visually assessed.

[3] = test system: Silverleaf Whitefly (Bemisia argentifolih) (Adults); experiment: Silverleaf whitefly adults on sprayed cotton plants; conditions: 300 ppm, 3 days after treatment
Source text: B.3 Silverleaf Whitefly (Bemisia argentifolih) (Adults)
(§1) The active compounds were formulated in cyclohexanone as a 10,000 ppm solution supplied in tubes. The tubes were inserted into an automated electrostatic sprayer equipped with an atomizing nozzle and they served as stock solutions for which lower dilutions were made in 50% acetone:50% water (v/v). A non-ionic surfactant (Kinetic®) was included in the solution at a volume of 0.01% (v/v).
Cotton plants at the cotyledon stage (one plant per pot) were sprayed by an automated electrostatic plant sprayer equipped with an atomizing spray nozzle. The plants were dried in the sprayer fume hood and then removed from the sprayer. Each pot was placed into a plastic cup and about 10 to 12 whitefly adults (approximately 3-5 days old) were introduced. The insects were collected using an aspirator and a nontoxic Tygon® tubing connected to a barrier pipette tip. The tip, containing the collected insects, was then gently inserted into the soil containing the treated plant, allowing insects to crawl out of the tip to reach the foliage for feeding. Cups were covered with a reusable screened lid. […] Mortality was assessed 3 days after treatment, compared to untreated control plants.

[4] = test system: Diamond back moth (Plutella xylostella); experiment: Diamond back moth (Plutella xylostella) cabbage leaf dip test; conditions: foliar, 3rd instar larvae, 72 hours after treatment, read-out: mortality in comparison with untreated controls
Description: B.2. Diamond Back Moth (Plutella xylostella)
The active compound is dissolved at the desired concentration in a mixture of 1:1 (vol:vol) distilled water:acetone. Surfactant (Alkamuls® EL 620) is added at a rate of 0.1% (vol/vol). The test solution is prepared at the day of use.
Leaves of cabbage were dipped in test solution and air-dried. Treated leaves were placed in petri dish enlined with moist filter paper and inoculated with ten 3rd instar larvae. Mortality was recorded 72 hours after treatment. Feeding damages were also recorded using a scale of 0-100%.

[5] = test system: Western flower thrips (Frankliniella occidentalis); experiment: Western flower thrips (Frankliniella occidentalis) cotton leaf disc test; conditions: foliar, 48 h, treated cotton leaf discs, 2 DAT, read-out: mortality in comparison with untreated controls
Description: B.9. Western Flower Thrips (Frankliniella occidentalis)
The active compounds were formulated by a Tecan liquid handler in 100% cyclohexanone as a 10,000 ppm solution supplied in tubes. The 10,000 ppm solution was serially diluted in 100% cyclohexanone to make interim solutions. These served as stock solutions for which final dilutions were made by the Tecan in 50% acetone:50% water (v/v) into 10 or 20 ml glass vials. A nonionic surfactant (Kinetic®) was included in the solution at a volume of 0.01% (v/v). The vials were then inserted into an automated electrostatic sprayer equipped with an atomizing nozzle for application to plants/insects.
Small (˜2″ in height) cotton plants are sprayed with test compounds at concentrations ranging from 300 to 0.01 ppm in acetone/water through the automated VPS. After drying, cotton leaves are removed and circular leaf discs (˜1 cm diameter) are punched from the treated surface and transferred to clean 20 mL scintillation vials. Ten Western flower thrips (FRANOC) are aspirated into each scintillation vial. The vials with the leaf discs and thrips are kept in an upright incubator at 25° C. and 50% relative humidity with a 14:10 light:dark photoperiod. Each treatment is replicated twice.
Thrips mortality is assessed at 2 DAT (days after treatment), counting all thrips both dead and alive. [The average absolute mortality is calculated for each treatment.]

[6] = test system: Orchid thrips (Dichromothrips corbetti); experiment: Orchid thrips (Dichromothrips corbetti) floral-immersion test; conditions: adult thrips, 72 hours after treatment, read-out: mortality in comparison with untreated controls
Description: B.7. Orchid Thrips (Dichromothrips corbetti)
Dichromothrips corbetti adults used for bioassay were obtained from a colony maintained continuously under laboratory conditions. For testing purposes, the test compound is diluted in a 1:1 mixture of acetone:water (vol:vol), plus Kinetic® HV at a rate of 0.01% v/v.
Thrips potency of each compound was evaluated by using a floral-immersion technique. All petals of individual, intact orchid flowers were dipped into treatment solution and allowed to dry in Petri dishes. Treated petals were placed into individual re-sealable plastic along with about 20 adult thrips. All test arenas were held under continuous light and a temperature of about 28° C. for duration of the assay. After 3 days, the numbers of live thrips were counted on each petal. The percent mortality was recorded 72 hours after treatment.

[7] = test system: Southern Armyworm (Spodoptera eridania), 2nd Instar Larvae; experiment: Southern armyworm 2nd instar larvae on sprayed lima bean plants; conditions: 96 h, 4 days after treatment, read-out: mortality in comparison with untreated controls
Description: B.4. Southern Armyworm (Spodoptera eridania), 2nd Instar Larvae
as §1, with “nonionic” for “non-ionic”
Lima bean plants (variety Sieva) were grown 2 plants to a pot and selected for treatment at the 1st true leaf stage. Test solutions were sprayed onto the foliage by an automated electrostatic plant sprayer equipped with an atomizing spray nozzle. The plants were dried in the sprayer fume hood and then removed from the sprayer. Each pot was placed into perforated plastic bags with a zip closure. About 10 to 11 armyworm larvae were placed into the bag and the bags zipped closed. Test plants were maintained in a growth room at about 25° C. and about 20-40% relative humidity for 4 days, avoiding direct exposure to fluorescent light (24 hour photoperiod) to prevent trapping of heat inside the bags. Mortality and reduced feeding were assessed 4 days after treatment, compared to untreated control plants.

SMILES: Cc1ccc(C(C)C)c(N2C(=O)CS/C2=N\N=C\c2ccc(-c3nccc(NC(=O)c4ccc(C(F)(F)F)cc4)n3)cc2)c1 [Example C-5, N-[2-[4-[(E)-[(Z)-[3-(2-isopropyl-5-methyl-phenyl)-4-oxo-thiazolidin-2-ylidene]hydrazono]methyl]phenyl]pyrimidin-4-yl]-4-(trifluoromethyl)benzamide]
- mortality at 2500 ppm [1]: > 75%
- mortality at 2500 ppm [2]: > 75%

SMILES: CC(C)c1ccccc1NC(=S)NN=Cc1ccc(-c2cc(C(=N)Nc3ccc(OC(F)(F)F)cc3)ncn2)cc1 [Example C-25]
- mortality in comparison with untreated controls [3]: over 75%

SMILES: CO[C@@H]1[C@@H](OC)[C@H](C)O[C@@H](O/N=C/c2ccc(-c3cc(NC(=O)c4ccc(OC(F)(F)F)cc4)ncn3)cc2)[C@@H]1OC [Example C-13, 4-(trifluoromethoxy)-N-[6-[4-[(E)-[(2S,3R,4R,5S,6S)-3,4,5-trimethoxy-6-methyl-tetrahydropyran-2-yl]oxyiminomethyl]phenyl]pyrimidin-4-yl]benzamide]
- mortality at 2500 ppm [1]: > 75%

SMILES: CC(C)c1ccccc1/N=C1\SCC(=O)N1/N=C/c1ccc(-c2cc(NC(=O)c3ccc(OC(F)(F)F)cc3)ncn2)cc1 [Example C-12, N-[6-[4-[(E)-[(2Z)-2-(2-isopropylphenyl)imino-4-oxo-thiazolidin-3-yl]iminomethyl]phenyl]pyrimidin-4-yl]-4-(trifluoromethoxy)benzamide]
- mortality at 500 ppm [4]: > 75%
- mortality at 300 ppm [5]: > 75%
- mortality at 2500 ppm [1]: > 75%
- mortality at 500 ppm [6]: > 75%
- mortality at 500 ppm [7]: > 75%
